According to US20230278997A1, “BICYCLO[1.1.1]PENTANE COMPOUNDS FOR THE TREATMENT AND PROPHYLAXIS OF HEPATITIS B VIRUS INFECTION” (Hoffmann-La Roche Inc., priority 2020, published 2023):
Like-named read-outs stand apart in the source and are kept apart here.

What was measured:
[1] = system: HBsAg; test: microbe, parasite or virus in culture; type: cell-based, HBV; conditions: Hepatitis B virus, read-out: HBsAg IC50
[2] = system: primary human hepatocyte (PHH); test: Cytotoxicity in PHH natural infection assay (Cell Counting Kit-8); type: cell-based; conditions: therapeutic index; CC50 by CCK8 in PHH over HBsAg IC50
Protocol: Detailed procedures regarding primary human hepatocyte (PHH) HBV natural infection assay are described as below. One tube of frozen PHH (10 million cells) was thawed in 37° C. water bath and then transferred to 20 mL of PHH thawing medium (Sigma, InVitroGRO HT Medium, Cat. 503319) with gently mixing. The cells were then centrifuged at […] for 5 min, the supernatant was discarded and the tube was refilled with 25 mL of PHH plating medium (Sigma, InVitroGRO CP Medium, Cat. 503317). The tube was shaken very gently to re-suspend all cells, and then 50 μl of cells were transferred to each well of a 384-well collagen I coated plate with appropriate liquid handling equipment, e.g. Integra VIAFLO384 or Agilent Bravo. The cells were then cultured for 24 hours in a cell incubator. For HBV infection, after PHH attachment on the culture plate, the plating medium was removed and replenished with PHH culture medium containing HBV virus. The PHH culture medium was prepared with Dulbecco's Modified Eagle Medium (DMEM)/F12 (1:1 in volume ratio) containing 10% fetal bovine serum (Gibco, Cat.10099141), 5 ng/mL human epidermal growth factor (Gibco, Cat.PHG031 IL), 20 ng/mL dexamethasone (Sigma, Cat.D4902-100 mg), 250 ng/mL human recombinant insulin (Gibco, Cat.41400045) and 100 U/mL penicillin. HBV virus at 200 genome equivalent (GE) per cell with 4% PEG8000 (Sigma, Cat.P1458) containing culture medium were added to the PHH culture medium for infection. The cells were then cultured for 24 hours in cell incubator. Then the cell culture supernatant was removed. The HBV-infected PHH were cultured with sandwich culture method with PHH culture medium containing 1% DMSO and 0.25 mg/mL matrix gel for 72 hours. The supernatant was then refreshed with PHH culture medium containing different concentrations of testing compounds for two times with 72-hour interval. At the end of treatment, the supernatant was collected for viral markers measurements, including HBsAg, HBeAg, HBV DNA and cytotoxicity. HBsAg and HBeAg were detected using alphalisa method using their specific antibodies. For HBV DNA detection, HBV DNA Quantitative Fluorescence Diagnostic Kit (Sansure Biotech Inc.) was used following the manufacture's protocol. Cytotoxicity was determined using Cell Counting Kit-8 (CCK8, Dojindo Molecular Technologies, Inc.).

[3] = system: HBeAg; test: microbe, parasite or virus in culture; type: cell-based, HBV; conditions: Hepatitis B virus, read-out: HBeAg IC50
[4] = Human microsome stability assay; type: in vitro ADME; conditions: 1 μM compound, 0.5 mg/mL microsomal protein, 37° C.; detection limit 6.15 mL/min/kg
Protocol: Human Microsome Stability Assay The human microsomal stability assay is used for early assessment of metabolic stability of a test compound in human liver microsomes. Human liver microsomes (Cat. […] The reactions were initiated by adding NADPH regenerating system. […] Following precipitation and centrifugation, the amount of compound remaining in the samples were determined by LC-MS/MS. Controls of no NADPH regenerating system at zero and 30 minutes were also prepared and analyzed.

[5] = Single dose pharmacokinetics (PK) study in male C57BL/6 mouse; type: in vivo; conditions: for clearance / half-life / Vd / AUC(0-t): male; for clearance / half-life / Vd: C57BL/6, plasma; for clearance / half-life / Vd / F: mouse; for Vd: read-out: VSS; for AUC(0-t): C57BL/6, mouse plasma; for F: dose normalized AUC0-last
Protocol: Single Dose Pharmacokinetics (PK) Study in Male C57BL/6 Mouse Pharmacokinetic properties of selected compounds were assessed by single dose PK studies in Male C57BL/6 mouse (vendor: Beijing Vital River Laboratory Animal Technology Co., Ltd). Briefly, two groups of animals were administered a single dose of respective compound intravenously (IV, bolus) at 1 mg/kg or orally (PO, by gavage) at 10 mg/kg or 30 mg/kg. […] After centrifugation, the resulting plasma was transferred to clean tubes for bioanalysis with LC/MS/MS. The pharmacokinetic parameters were calculated using non-compartmental analysis. The volume of distribution (Vss), half-life (T1/2) and clearance (CL) were obtained based on the plasma concentration-time curve after IV dose. The peak concentration (Cmax) was recorded directly from experimental observations after PO dose. The area under the plasma concentration-time curve (AUC0-last and AUC0-24 h) was calculated using the linear trapezoidal rule up to the last detectable concentration. The bioavailability (F) was calculated based on the dose normalized AUC0-last after IV and PO dose. The Vss of a drug represents the degree to which a drug is distributed in body tissue rather than the plasma. Vss is directly proportional with the amount of drug distributed into tissue. A higher Vss indicates a greater amount of tissue distribution.

[6] = as above; type: in vivo; conditions: IV dose 0.4 mg/kg
[7] = IV bolus 1 mg/kg, read-out: IV AUC0-24h
[8] = PO 30 mg/kg single dose, read-out: PO AUC0-24h
[9] = PO 10 mg/kg single dose, read-out: PO AUC0-24h

Row | Structure (SMILES) | IC50 [1] [nM] | TI (CC50/IC50 HBsAg) [2] | IC50 [3] [nM] | Clearance of human microsome [4] [mL/min/kg] | clearance ([5]; IV bolus 1 mg/kg) [mL/min/kg] | half-life ([5]; IV bolus 1 mg/kg) [h] | Vd ([5]; IV bolus 1 mg/kg) [L/kg] | AUC(0-t) [5, 7] [µg·h/mL] | AUC(0-t) [5, 8] [µg·h/mL] | F ([5]; PO 30 mg/kg vs IV) [%] | AUC(0-t) [5, 9] [µg·h/mL] | F ([5]; PO 10 mg/kg vs IV 1 mg/kg) [%] | AUC(0-t) ([6]; C57BL/6, mouse plasma, AUC value is dose-normalized, read-out: IV AUC0-24h) [µg·h/mL] | clearance ([6]; C57BL/6, plasma, mouse) [mL/min/kg] | half-life ([6]; C57BL/6, plasma, mouse) [h] | Vd ([6]; C57BL/6, plasma, mouse, read-out: VSS) [L/kg]
1 | CS(=O)(=O)C1(c2ccc(C(=O)NC34CC(c5nc(-c6ccc(Cl)cc6)cs5)(C3)C4)o2)CC1 [Example 1, N-[3-[4-(4-chlorophenyl)thiazol-2-yl]-1-bicyclo[1.1.1]pentanyl]-5-(1-methylsulfonylcyclopropyl)furan-2-carboxamide] | 160 | 27.88 | 120 | ≤6.15 | 0.2 | 23.6 | 0.4 | 42.7 | 1310 | 102 |  |  |  |  |  | 
2 | CS(=O)(=O)C1(c2nsc(C(=O)NC34CC(c5ccnc(-c6ccc(Cl)cc6)n5)(C3)C4)n2)CC1 [Example 48, N-[3-[2-(4-chlorophenyl)pyrimidin-4-yl]-1-bicyclo[1.1.1]pentanyl]-3-(1-methylsulfonylcyclopropyl)-1,2,4-thiadiazole-5-carboxamide] | 70 | 127.43 | 70 | 10.71 | 0.07 | 53.7 | 0.29 | 70.2 |  |  | 629 | 92 |  |  |  | 
3 | CS(=O)(=O)C1(c2nsc(C(=O)NC34CC(c5nc(-c6ccc(Cl)cc6)no5)(C3)C4)n2)CC1 [Example 34, N-[3-[3-(4-chlorophenyl)-1,2,4-oxadiazol-5-yl]-1-bicyclo[1.1.1]pentanyl]-3-(1-methylsulfonylcyclopropyl)-1,2,4-thiadiazole-5-carboxamide] | 20 | 181.50 | 20 | ≤6.15 |  |  |  |  | 270 | 39 |  |  | 24.2 | 0.03 | > 40 | 0.93
4 | CS(=O)(=O)C1(c2ccc(C(=O)NC34CC(c5noc(-c6ccc(Cl)cc6)n5)(C3)C4)o2)CC1 [Example 40, N-[3-[5-(4-chlorophenyl)-1,2,4-oxadiazol-3-yl]-1-bicyclo[1.1.1]pentanyl]-5-(1-methylsulfonylcyclopropyl)furan-2-carboxamide] | 140 | 46.00 | 100 | ≤6.15 | 0.85 | 12 | 0.83 | 14.9 | 80.8 | 18 |  |  |  |  |  | 
5 | CS(=O)(=O)C1(c2nsc(C(=O)NC34CC(c5cnn(-c6ccc(Cl)cc6)n5)(C3)C4)n2)CC1 [Example 60, N-[3-[2-(4-chlorophenyl)triazol-4-yl]-1-bicyclo[1.1.1]pentanyl]-3-(1-methylsulfonylcyclopropyl)-1,2,4-thiadiazole-5-carboxamide] | 17 | 261.76 | 17 | ≤6.15 | 0.1 | 62.4 | 0.55 | 38.1 | 154 | 14 |  |  |  |  |  | 
6 | CS(=O)(=O)C1(c2nsc(C(=O)NC34CC(c5noc(-c6ccc(Cl)cc6)n5)(C3)C4)n2)CC1 [Example 41, N-[3-[5-(4-chlorophenyl)-1,2,4-oxadiazol-3-yl]-1-bicyclo[1.1.1]pentanyl]-3-(1-methylsulfonylcyclopropyl)-1,2,4-thiadiazole-5-carboxamide] | 130 | 65.54 | 80 | 14.14 | 0.11 | 67.3 | 0.62 | 34 |  |  | 59.7 | 18 |  |  |  | 
7 | CS(=O)(=O)C1(c2ccc(C(=O)NC34CC(c5cnn(-c6ccc(Cl)cc6)n5)(C3)C4)o2)CC1 [Example 30, N-[3-[2-(4-chlorophenyl)triazol-4-yl]-1-bicyclo[1.1.1]pentanyl]-5-(1-methylsulfonylcyclopropyl)furan-2-carboxamide] | 60 | 148.67 | 40 | ≤6.15 | 0.19 | 48.4 | 0.74 | 27 | 370 | 46 |  |  |  |  |  | 
8 | CS(=O)(=O)C1(c2ccc(C(=O)NC34CC(c5nc(-c6ccc(Cl)cc6)no5)(C3)C4)o2)CC1 [Example 32, N-[3-[3-(4-chlorophenyl)-1,2,4-oxadiazol-5-yl]-1-bicyclo[1.1.1]pentanyl]-5-(1-methylsulfonylcyclopropyl)furan-2-carboxamide] | 40 | 112.00 | 40 | ≤6.15 | 0.43 | 17.8 | 0.64 | 24.1 | 249 | 35 |  |  |  |  |  | 
